Results reported in patent US20230339970A1, “CASEIN KINASE 1 DELTA MODULATORS” (priority 2020, published 2023).

What was measured:
human CSNK1D = target: T1, human CSNK1D (Homo sapiens, UniProt P48730); assay: Whole Cell nBRET CSNK1D Binding Assay; settings: living CHO cells stably expressing human CSNK1D tagged with nanoluciferase; NanoBret tracer 130 nM; 2 hours at 37 C
T1 construct: expressed in transfected cells

[1] = target: T2, human recombinant GST cleaved CSNK1D (Homo sapiens, UniProt P48730); assay: Purified Enzyme Assay (ADP-Glo CSNK1D Kinase Assay); format: biochemical; settings: 2 nM CSNK1D; peptide substrate 150 μM; ATP 20 μM; 45 minutes at room temperature
T2 construct: GST (cleaved yes); purchased University of Dundee clone DU 19064
Method in brief: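 Percent activity derived from ADP-Glo quantification of ADP produced. Reactions: compound dose-response with human recombinant GST-cleaved CSNK1D, ATP and substrate peptide PLSRTL-pS-VASLPGL, incubated 45 min at room temperature.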

T1 sequence (P48730 whole entry): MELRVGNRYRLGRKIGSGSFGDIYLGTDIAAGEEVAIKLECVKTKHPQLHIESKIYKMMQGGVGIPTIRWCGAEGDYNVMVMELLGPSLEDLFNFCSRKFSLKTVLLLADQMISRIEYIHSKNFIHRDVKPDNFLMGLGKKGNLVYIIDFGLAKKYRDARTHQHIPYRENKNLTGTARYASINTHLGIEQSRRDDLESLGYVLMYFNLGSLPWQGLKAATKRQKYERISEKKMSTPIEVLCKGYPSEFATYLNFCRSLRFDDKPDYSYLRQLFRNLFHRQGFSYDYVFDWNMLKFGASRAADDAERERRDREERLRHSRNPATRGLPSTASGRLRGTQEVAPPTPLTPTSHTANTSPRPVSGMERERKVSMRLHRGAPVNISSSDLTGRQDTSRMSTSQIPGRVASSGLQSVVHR
T2 sequence (P48730 whole entry): as above

SMILES | IC50 (human CSNK1D) [nM] | IC50 [1] [nM]
CC1n2nc(-c3ccc(F)cn3)c(-c3ccnc4[nH]ncc34)c2COC1(C)C (single isomer, unassigned) [Example 174, (*S)-2-(5-Fluoropyridin-2-yl)-6,6,7-trimethyl-3-(1H-pyrazolo[3,4-b]pyridin-4-yl)-6,7-dihydro-4H-pyrazolo[5,1-c][1,4]oxazine] | 114 | 8
Fc1ccc(-c2nn3c(c2-c2ccnc4[nH]ncc24)CCC(F)(COC(F)F)C3)nc1 (single isomer, unassigned) [Example 315, (*R)-4-(6-((Difluoromethoxy)methyl)-6-fluoro-2-(5-fluoropyridin-2-yl)-4,5,6,7-tetrahydropyrazolo[1,5-a]pyridin-3-yl)-1H-pyrazolo[3,4-b]pyridine] | 1880 | 73
Cc1cc(-c2c(-c3ccc(F)cn3)nn3c2CCCC3)c2cn[nH]c2n1 [Example 36, 4-[2-(5-Fluoro-2-pyridyl)-4,5,6,7-tetrahydropyrazolo[1,5-a]pyridin-3-yl]-6-methyl-1H-pyrazolo[3,4-b]pyridine] | 133 | 6
Fc1ccc(-c2nn3c(c2-c2c(F)cnc4[nH]ncc24)CC[C@H]2[C@@H]3C2(F)F)nc1 (single isomer, unassigned) [Example 358, (5a*S,6a*R)-6,6-difluoro-3-(5-fluoro-1H-pyrazolo[3,4-b]pyridin-4-yl)-2-(5-fluoropyridin-2-yl)-5,5a,6,6a-tetrahydro-4H-cyclopropa[e]pyrazolo[1,5-a]pyridine] | 85 | 4
CC1(CF)CCc2c(-c3ccncc3)c(-c3ccc(F)cn3)nn2C1 (single isomer, unassigned) [Example 284, (*S)-6-(Fluoromethyl)-2-(5-fluoro-2-pyridyl)-6-methyl-3-(4-pyridyl)-5,7-dihydro-4H-pyrazolo[1,5-a]pyridine] | 68 | 6
C[C@H]1Cn2nc(-c3ccc(F)cn3)c(-c3ccnc4[nH]ncc34)c2CO1 (single isomer, unassigned) [Example 86, (*S)-2-(5-Fluoro-2-pyridyl)-6-methyl-3-(1H-pyrazolo[3,4-b]pyridin-4-yl)-6,7-dihydro-4H-pyrazolo[5,1-c][1,4]oxazine] | 254 | 29
Cc1cc(-c2c(-c3ccc(F)cc3)nn3c2COC[C@H]3C)c2cn[nH]c2n1 (single isomer, unassigned) [Example 94, (*R)-2-(4-Fluorophenyl)-7-methyl-3-(6-methyl-1H-pyrazolo[3,4-b]pyridin-4-yl)-6,7-dihydro-4H-pyrazolo[5,1-c][1,4]oxazine] | 92 | 7
Cc1n[nH]c2nccc(-c3c(-c4ccc(F)cc4)nn4c3OCC3(C4)CC3(F)F)c12 (single isomer, unassigned) [Example 472, (*S)-2,2-Difluoro-2′-(4-fluorophenyl)-3′-(3-methyl-1H-pyrazolo[3,4-b]pyridin-4-yl)-5′H,7′H-spiro[cyclopropane-1,6′-pyrazolo[5,1-b][1,3]oxazine]] | 597 | 69
CC1(C)CCc2c(-c3ccnc(N)c3)c(-c3ccc(F)cn3)nn2C1 [Example 281, 4-[2-(5-Fluoro-2-pyridyl)-6,6-dimethyl-5,7-dihydro-4H-pyrazolo[1,5-a]pyridin-3-yl]pyridin-2-amine] | 54 | 4
CC1(C)Cn2nc(-c3ccc(F)cn3)c(-c3ccnc4cc[nH]c34)c2CO1 [Example 149, 2-(5-Fluoro-2-pyridyl)-6,6-dimethyl-3-(1H-pyrrolo[3,2-b]pyridin-7-yl)-4,7-dihydropyrazolo[5,1-c][1,4]oxazine] | > 10000 | 1420
CC1(C)Cn2nc(-c3ccc(F)cn3)c(-c3ccnc4[nH]cc(C#N)c34)c2CO1 [Example 148, 4-(2-(5-Fluoropyridin-2-yl)-6,6-dimethyl-6,7-dihydro-4H-pyrazolo[5,1-c][1,4]oxazin-3-yl)-1H-pyrrolo[2,3-b]pyridine-3-carbonitrile] | 3280 | 59
CCC(=O)Nc1cc(-c2c(-c3ccc(F)cn3)nn3c2COC(C)(C)C3)c(C)cn1 [Example 379, N-(4-(2-(5-Fluoropyridin-2-yl)-6,6-dimethyl-6,7-dihydro-4H-pyrazolo[5,1-c][1,4]oxazin-3-yl)-5-methylpyridin-2-yl)propionamide] | 738 | 41
CC1(C)Cn2nc(-c3ccc(F)cn3)c(-c3cc(CCC(F)(F)F)nc4[nH]ncc34)c2CO1 [Example 391, 2-(5-Fluoro-2-pyridyl)-6,6-dimethyl-3-[6-(3,3,3-trifluoropropyl)-1H-pyrazolo[3,4-b]pyridin-4-yl]-4,7-dihydropyrazolo[5,1-c][1,4]oxazine] | 5380 | 258
Fc1ccc(-c2nn3c(c2-c2ccnc4[nH]ncc24)CC(F)(F)CC3)nc1 [Example 48, 4-[5,5-Difluoro-2-(5-fluoro-2-pyridyl)-6,7-dihydro-4H-pyrazolo[1,5-a]pyridin-3-yl]-1H-pyrazolo[3,4-b]pyridine] | 924 | 40
Cn1cnc(-c2nn3c(c2-c2ccnc4[nH]ncc24)COC(C)(C)C3)c1 [Example 127, 6,6-Dimethyl-2-(1-methyl-1H-imidazol-4-yl)-3-(1H-pyrazolo[3,4-b]pyridin-4-yl)-6,7-dihydro-4H-pyrazolo[5,1-c][1,4]oxazine] | 3250 | 51
Cc1nc(-c2c(-c3ccc(F)cn3)nn3c2CC[C@@H]2C[C@@H]23)c2cn[nH]c2n1 (relative stereo) [Example 347, (5a*R,6a*S)-2-(5-fluoropyridin-2-yl)-3-(6-methyl-1H-pyrazolo[3,4-d]pyrimidin-4-yl)-5,5a,6,6a-tetrahydro-4H-cyclopropa[e]pyrazolo[1,5-a]pyridine] | 573 | 35
CC1(C)Cn2nc(-c3cscn3)c(-c3ccnc4[nH]ncc34)c2CO1 [Example 124, 6,6-Dimethyl-3-(1H-pyrazolo[3,4-b]pyridin-4-yl)-2-(thiazol-4-yl)-6,7-dihydro-4H-pyrazolo[5,1-c][1,4]oxazine] | 343 | 17
Cn1ncc2nccc(-c3c(-c4ccc(F)cn4)nn4c3COC(C)(C)C4)c21 [Example 159, 2-(5-Fluoropyridin-2-yl)-6,6-dimethyl-3-(1-methyl-1H-pyrazolo[4,3-b]pyridin-7-yl)-6,7-dihydro-4H-pyrazolo[5,1-c][1,4]oxazine] | > 10000 | 1180

Further compounds by falling IC50 (human CSNK1D), results first:

IC50 (human CSNK1D) [nM] | IC50 [1] [nM] | SMILES
54 | 3 | C[C@H]1OCc2c(-c3ccnc4[nH]ncc34)c(-c3ccc(F)cc3)nn2[C@H]1C (relative stereo) [Example 112, (6*R,7*S)-2-(4-Fluorophenyl)-6,7-dimethyl-3-(1H-pyrazolo[3,4-b]pyridin-4-yl)-6,7-dihydro-4H-pyrazolo[5,1-c][1,4]oxazine]
17 | 2 | [2H]C([2H])([2H])C1(C([2H])([2H])[2H])Cn2nc(-c3ccc(F)cc3)c(-c3nc(C)nc4[nH]ncc34)c2CO1 [Example 410, 2-(4-Fluorophenyl)-6,6-bis(methyl-d3)-3-(6-methyl-1H-pyrazolo[3,4-d]pyrimidin-4-yl)-6,7-dihydro-4H-pyrazolo[5,1-c][1,4]oxazine]
12 | 1 | Cc1cc(-c2c(-c3ccc(F)cc3)nn3c2CC[C@@H]3C)c2cn[nH]c2n1 [Example 17, 4-[(6S)-2-(4-Fluorophenyl)-6-methyl-5,6-dihydro-4H-pyrrolo[1,2-b]pyrazol-3-yl]-6-methyl-1H-pyrazolo[3,4-b]pyridine]
11 | 1 | C[C@@]1(CF)CCc2c(-c3ccnc4[nH]ncc34)c(-c3ccc(F)cn3)nn2C1 (single isomer, unassigned) [Example 52, (*R)-4-[6-(Fluoromethyl)-2-(5-fluoro-2-pyridyl)-6-methyl-5,7-dihydro-4H-pyrazolo[1,5-a]pyridin-3-yl]-1H-pyrazolo[3,4-b]pyridine]
11 | 2 | [2H]C([2H])([2H])C1(C([2H])([2H])[2H])Cn2nc(-c3ccc(F)cn3)c(-c3c(F)cnc4[nH]ccc34)c2CO1 [Example 397, 3-(5-Fluoro-1H-pyrrolo[2,3-b]pyridin-4-yl)-2-(5-fluoropyridin-2-yl)-6,6-bis(methyl-d3)-6,7-dihydro-4H-pyrazolo[5,1-c][1,4]oxazine]
11 | 1 | C[C@]1(CF)CCc2c(-c3ccnc4[nH]ncc34)c(-c3ccc(F)cn3)nn2C1 (single isomer, unassigned) [Example 51, (*)-4-[6-(Fluoromethyl)-2-(5-fluoro-2-pyridyl)-6-methyl-5,7-dihydro-4H-pyrazolo[1,5-a]pyridin-3-yl]-1H-pyrazolo[3,4-b]pyridine]
7 | 1 | Fc1ccc(-c2nn3c(c2-c2ccnc4[nH]ncc24)CC[C@H]2C[C@H]23)cc1 (stereo in doubt) [Example 339, (5a*S,6a*R)-2-(4-Fluorophenyl)-3-(1H-pyrazolo[3,4-b]pyridin-4-yl)-5,5a,6,6a-tetrahydro-4H-cyclopropa[e]pyrazolo[1,5-a]pyridine]
1 | 1 | Fc1ccc(-c2nn3c(c2-c2ccnc4[nH]ncc24)CCC2(C3)CC2(F)F)cc1 (single isomer, unassigned) [Example 325, (*R)-2,2-Difluoro-2′-(4-fluorophenyl)-3′-(1H-pyrazolo[3,4-b]pyridin-4-yl)-4′,5′-dihydro-7′H-spiro[cyclopropane-1,6′-pyrazolo[1,5-a]pyridine]]
